Measurements from article PMC6504873, “High-throughput screening of the Plasmodium falciparum cGMP-dependent protein kinase identified a thiazole scaffold which kills erythrocytic and sexual stage parasites” (Scientific Reports, 2019).

What was measured:
[1] = target: T1, TQ PfPKG (PfPKG_T618Q) (Plasmodium falciparum, UniProt Q8I719, T618Q); test: Kinase Glo enzymatic assay, gatekeeper mutant TQ PfPKG; assay type: biochemical, P. falciparum
T1 construct: His6 (N); host or cells: E. coli BL21
Experimental: Taking advantage of the availability of more than 3,000 thiazole derivatives among the GSK compound collection, cluster 3 was thoroughly investigated for potent and selective inhibitors of WT PfPKG. […] We explored the binding mode by also testing compounds on the gatekeeper mutant enzyme TQ PfPKG. […] These two time points were chosen to give an indication of the speed of kill of the compounds. […] A preliminary safety test was performed on human AuroraB and LCK kinases which often underpin toxicity issues. […] Further assays for compound characterization included determination of solubility and cytotoxicity (HepG2 inhibition). Thiazoles have been previously identified as human BRaf inhibitors that are used to treat melanoma.
Protein production was outsourced to the Division of Signal Transduction Therapy, University of Dundee. Briefly, the pTRChis expression vectors (Invitrogen) containing an N-terminally His6-tagged PfPKG wildtype and T618Q were used to transform BL21 cells (protocol adapted from[23]). The cells were grown at 37 °C until the OD600 was 0.4–0.6 then the temperature was reduced to 15 °C and the cells were induced with 250 µM IPTG and grown for a further 16–18 hours before harvesting. The His6-PfPKG was purified on Cobalt agarose followed by gel filtration and the protein was dialysed into 25 mM Hepes pH 7.5, 0.1 mM EGTA, 150 mM NaCl, 50% glycerol and 2 mM DTT.
Initial optimization of the PKG assay was performed manually in 384-well plates and analysed with GraFit 7. The buffer for all assays was 25 mM HEPES pH 7.3 (GIBCO), 10 mM MgCl2 (Sigma), 2 mM DTT (Sigma), 0.01 mM cGMP (Sigma), 0.1 mg/ml BSA (Ambion). Enzymatic activity was tested using a luminescence-based kit (Promega KinaseGlo). Addition of the first reagent depletes the unused ATP and addition of the second reagent converts ADP (product of the kinase reaction) to ATP, which is then measured through a luciferin/luciferase reaction. The amount of luminescence is directly proportional to ATP turnover by the kinase. The kit was chosen because it can be miniaturized to small volumes (i.e. 4 µl) in 1536-well plates, for use in HTS.
We used PKA peptide substrate (SCP0212, Sigma-Aldrich) for WT and TQ PfPKG, dissolved in milliQ water at a final concentration of 5 mM, and Long S6 peptide substrate (produced at the University of Dundee, sequence […]) for HuPKGIα, dissolved in water at a final concentration of 30 mM.
We calculated the Michaelis-Menten (Km) constant for ATP and peptide substrate (PKA or Long S6) for all enzymes using GraphPad Prism (Supplementary Figs 2 and 3 and Supplementary Table 3). In order to identify different types of PKG inhibitors, including ATP competitive or non-competitive inhibitors, as well as inhibitors that bind to the peptide substrate pocket, we performed all assays using ATP and peptide substrate at a concentration equal to the Km. We also determined enzyme activity by calculating ATP turnover (Kcat) over the Km (Supplementary Table 3). The Kcat was calculated as (Vmax*slope)/[E] where Vmax is the maximum velocity and [E] is the concentration of the enzyme.
The plates containing the compounds were prepared at GSK in Upper Providence or Stevenage. Compounds were tested at a single final concentration of 10 µM or in a dose response with a range of concentrations starting from 100 μM to 1.6 nM (1 in 3 serial dilutions). Compounds were dispensed in the plates at the required concentration in a 40 nl volume. All plates (1536-well white Greiner) contained 40 nl of DMSO in lanes 11 and 12 (control 1, 100% enzyme activity) and were empty in lanes 35 and 36 (control 2, 0% enzyme activity). The plates were removed from −20 °C 1 hour before starting the assay. Using a Multidrop Combi dispenser (Thermo Scientific), 2 µl of the buffer containing ATP and the substrate were added to all wells then 2 µl of buffer only were added to column 35 and 36. […]

[2] = system: HepG2 cells; test: Cytotoxicity assay (CellTiter-Glo); assay type: cell-based; conditions: Homo sapiens; HepG2 cytotoxicity; read-out: HepG2
Experimental: Cytotoxicity assays were performed on HepG2 cells as previously described. HepG2 cells were removed from a T-175 TC flask using 5 mL Eagle’s MEM (containing 10% FBS, 1% NEAA, 1% penicillin/streptomycin) and dispersed in the medium. Seeding density was checked to ensure that new mono-layers were not more than 50% confluent at the time of harvesting. Cells were added to 500 mL of the same medium at a final density of 1.2 × 10^5 cells/mL. They were then dispensed (25 μL, about 3,000 cells per well) into 384-well clear-bottom plates using a Multidrop Combi dispenser. Test compounds (250 nL) were dispensed into the plates with an EchoH liquid handler prior to addition of the cells. Plates were incubated for 48 h at 37 °C, 5% CO2. After incubation, plates were equilibrated at room temperature for 30 minutes before proceeding to develop the luminescent signal. The CellTiter-GloH Reagent was allowed to equilibrate at room temperature for 30 minutes and added to the plates (25 μL per well) using a Multidrop Combi dispenser. Plates were left for 10 minutes at room temperature for stabilization and then read using a Perkin Elmer ViewLux.

[3] = target: LCK (Homo sapiens, UniProt P06239); test: Preliminary safety test on human LCK kinase; assay type: biochemical
Experimental: We explored the binding mode by also testing compounds on the gatekeeper mutant enzyme TQ PfPKG. […] A preliminary safety test was performed on human AuroraB and LCK kinases which often underpin toxicity issues. […] Further assays for compound characterization included determination of solubility and cytotoxicity (HepG2 inhibition).

[4] = target: T2, WT PfPKG (Plasmodium falciparum, UniProt Q8I719); set-up: species or system P. falciparum; conditions: for LE: ligand efficiency; for LLE: lipophilic ligand efficiency
T2 construct: recombinant full length wild type (WT) PfPKG; His6 (N); host or cells: E. coli BL21
Text: A scoring system was developed to further prioritize interesting compounds. […] Three points were given to compounds that inhibit HuPKGIα at least 3 orders of magnitude less than WT PfPKG. […] We also considered how well the compounds bind to the target by taking into account two physicochemical properties: ligand efficiency (LE, 1.37 x pIC50/number heavy atoms) is a characterization of a compound’s efficiency on a per-heavy-atom basis[51] and lipophilic ligand efficiency (LLE, pIC50 – clogP) is a parameter used in drug design which links potency and lipophilicity in an attempt to estimate drug-likeness[52]. The ClogP coefficient measures lipophilicity. Values of LE ≥ 0.3 and LLE ≥ 5 are typically accepted as good starting points for optimizations efforts.

[5] = target: PI3KD (Homo sapiens, UniProt O00329); test: Preliminary safety test on human PI3KD kinase; assay type: biochemical
[6] = AM_Perm (artificial membrane permeability); assay type: in vitro ADME
[7] = ChromlogD (lipophilicity)

T2 sequence (Q8I719 whole entry): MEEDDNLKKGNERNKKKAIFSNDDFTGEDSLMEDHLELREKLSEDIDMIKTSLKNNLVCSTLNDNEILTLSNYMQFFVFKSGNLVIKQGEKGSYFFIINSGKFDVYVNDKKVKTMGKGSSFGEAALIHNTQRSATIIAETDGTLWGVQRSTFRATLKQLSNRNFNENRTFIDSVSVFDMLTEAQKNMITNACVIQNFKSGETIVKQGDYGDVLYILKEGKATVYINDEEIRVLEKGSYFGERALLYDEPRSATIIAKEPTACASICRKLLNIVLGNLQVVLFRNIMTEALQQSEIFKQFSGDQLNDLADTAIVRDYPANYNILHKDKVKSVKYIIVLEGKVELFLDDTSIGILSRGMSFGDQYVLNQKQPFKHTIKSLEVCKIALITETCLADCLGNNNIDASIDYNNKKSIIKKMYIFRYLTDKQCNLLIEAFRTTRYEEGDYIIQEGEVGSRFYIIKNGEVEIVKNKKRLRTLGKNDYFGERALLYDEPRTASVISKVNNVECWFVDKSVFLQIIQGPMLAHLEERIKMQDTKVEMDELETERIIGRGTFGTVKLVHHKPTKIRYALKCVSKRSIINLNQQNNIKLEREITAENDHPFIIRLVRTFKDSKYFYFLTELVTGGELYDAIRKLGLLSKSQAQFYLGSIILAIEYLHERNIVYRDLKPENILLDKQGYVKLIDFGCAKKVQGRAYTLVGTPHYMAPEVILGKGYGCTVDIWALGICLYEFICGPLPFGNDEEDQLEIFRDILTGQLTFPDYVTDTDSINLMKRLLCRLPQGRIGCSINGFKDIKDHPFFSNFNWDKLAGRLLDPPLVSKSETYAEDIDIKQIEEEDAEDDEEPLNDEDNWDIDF
T1 sequence (Q8I719 whole entry T618Q): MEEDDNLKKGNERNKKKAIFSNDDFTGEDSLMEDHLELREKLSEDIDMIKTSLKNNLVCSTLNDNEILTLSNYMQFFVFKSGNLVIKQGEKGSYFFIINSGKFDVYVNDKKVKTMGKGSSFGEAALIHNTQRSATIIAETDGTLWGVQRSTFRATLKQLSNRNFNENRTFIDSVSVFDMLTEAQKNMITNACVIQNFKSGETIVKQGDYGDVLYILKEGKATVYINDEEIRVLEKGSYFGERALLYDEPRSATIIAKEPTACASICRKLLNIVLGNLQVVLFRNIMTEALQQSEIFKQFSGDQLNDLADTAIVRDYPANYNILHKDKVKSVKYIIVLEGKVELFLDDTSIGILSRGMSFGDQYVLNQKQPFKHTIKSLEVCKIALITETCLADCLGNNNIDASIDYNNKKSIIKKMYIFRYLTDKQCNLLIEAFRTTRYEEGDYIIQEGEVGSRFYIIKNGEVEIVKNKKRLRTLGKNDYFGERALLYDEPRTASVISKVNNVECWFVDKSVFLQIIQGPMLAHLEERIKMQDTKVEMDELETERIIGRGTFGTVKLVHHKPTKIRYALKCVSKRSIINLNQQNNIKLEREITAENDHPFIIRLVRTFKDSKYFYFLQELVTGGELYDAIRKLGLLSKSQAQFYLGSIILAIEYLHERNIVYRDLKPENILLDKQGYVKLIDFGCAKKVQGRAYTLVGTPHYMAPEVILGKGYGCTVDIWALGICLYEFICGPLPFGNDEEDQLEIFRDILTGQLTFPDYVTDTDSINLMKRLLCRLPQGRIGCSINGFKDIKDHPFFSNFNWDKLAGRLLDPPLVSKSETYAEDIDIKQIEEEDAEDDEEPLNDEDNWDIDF
Sequence of LCK (P06239 whole entry): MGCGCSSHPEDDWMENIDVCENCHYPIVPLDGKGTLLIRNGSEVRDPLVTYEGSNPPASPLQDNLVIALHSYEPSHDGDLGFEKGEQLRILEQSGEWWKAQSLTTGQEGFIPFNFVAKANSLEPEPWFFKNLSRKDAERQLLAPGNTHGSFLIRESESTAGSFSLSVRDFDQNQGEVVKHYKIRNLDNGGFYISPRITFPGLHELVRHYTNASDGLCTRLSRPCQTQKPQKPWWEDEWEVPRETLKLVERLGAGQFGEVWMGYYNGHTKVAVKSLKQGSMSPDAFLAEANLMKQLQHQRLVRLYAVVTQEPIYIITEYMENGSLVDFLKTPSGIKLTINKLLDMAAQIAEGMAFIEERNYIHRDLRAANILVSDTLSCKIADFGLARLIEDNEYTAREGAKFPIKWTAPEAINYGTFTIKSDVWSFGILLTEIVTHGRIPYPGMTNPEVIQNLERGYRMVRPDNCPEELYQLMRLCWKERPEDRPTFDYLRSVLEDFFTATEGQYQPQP
Sequence of PI3KD (O00329 whole entry): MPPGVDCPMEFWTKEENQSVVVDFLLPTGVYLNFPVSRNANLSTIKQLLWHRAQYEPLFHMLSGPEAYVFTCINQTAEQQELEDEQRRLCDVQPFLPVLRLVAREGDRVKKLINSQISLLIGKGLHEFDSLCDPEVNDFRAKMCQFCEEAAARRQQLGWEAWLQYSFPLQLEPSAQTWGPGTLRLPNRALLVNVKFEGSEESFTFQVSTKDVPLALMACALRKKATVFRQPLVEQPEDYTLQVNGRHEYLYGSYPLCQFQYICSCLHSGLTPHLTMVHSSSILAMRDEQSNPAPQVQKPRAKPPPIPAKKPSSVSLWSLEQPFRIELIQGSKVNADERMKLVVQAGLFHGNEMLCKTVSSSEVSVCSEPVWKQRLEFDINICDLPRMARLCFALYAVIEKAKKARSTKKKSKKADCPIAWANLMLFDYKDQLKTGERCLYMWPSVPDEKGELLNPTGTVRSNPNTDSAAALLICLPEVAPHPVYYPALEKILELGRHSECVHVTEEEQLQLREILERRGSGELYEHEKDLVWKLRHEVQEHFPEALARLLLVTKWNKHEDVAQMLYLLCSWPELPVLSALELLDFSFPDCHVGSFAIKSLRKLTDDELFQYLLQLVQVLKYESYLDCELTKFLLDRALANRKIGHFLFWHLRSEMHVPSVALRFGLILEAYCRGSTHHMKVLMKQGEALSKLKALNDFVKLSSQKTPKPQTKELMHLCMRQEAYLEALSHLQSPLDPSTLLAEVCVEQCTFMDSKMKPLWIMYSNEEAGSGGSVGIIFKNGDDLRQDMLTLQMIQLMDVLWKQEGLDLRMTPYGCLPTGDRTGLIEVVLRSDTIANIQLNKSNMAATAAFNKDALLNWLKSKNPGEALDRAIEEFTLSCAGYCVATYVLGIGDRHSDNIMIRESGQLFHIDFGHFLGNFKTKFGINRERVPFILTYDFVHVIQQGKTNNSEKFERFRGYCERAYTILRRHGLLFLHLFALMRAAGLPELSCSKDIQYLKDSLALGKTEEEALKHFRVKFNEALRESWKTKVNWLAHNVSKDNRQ
Sequence of PI3KD (P27986 whole entry partner): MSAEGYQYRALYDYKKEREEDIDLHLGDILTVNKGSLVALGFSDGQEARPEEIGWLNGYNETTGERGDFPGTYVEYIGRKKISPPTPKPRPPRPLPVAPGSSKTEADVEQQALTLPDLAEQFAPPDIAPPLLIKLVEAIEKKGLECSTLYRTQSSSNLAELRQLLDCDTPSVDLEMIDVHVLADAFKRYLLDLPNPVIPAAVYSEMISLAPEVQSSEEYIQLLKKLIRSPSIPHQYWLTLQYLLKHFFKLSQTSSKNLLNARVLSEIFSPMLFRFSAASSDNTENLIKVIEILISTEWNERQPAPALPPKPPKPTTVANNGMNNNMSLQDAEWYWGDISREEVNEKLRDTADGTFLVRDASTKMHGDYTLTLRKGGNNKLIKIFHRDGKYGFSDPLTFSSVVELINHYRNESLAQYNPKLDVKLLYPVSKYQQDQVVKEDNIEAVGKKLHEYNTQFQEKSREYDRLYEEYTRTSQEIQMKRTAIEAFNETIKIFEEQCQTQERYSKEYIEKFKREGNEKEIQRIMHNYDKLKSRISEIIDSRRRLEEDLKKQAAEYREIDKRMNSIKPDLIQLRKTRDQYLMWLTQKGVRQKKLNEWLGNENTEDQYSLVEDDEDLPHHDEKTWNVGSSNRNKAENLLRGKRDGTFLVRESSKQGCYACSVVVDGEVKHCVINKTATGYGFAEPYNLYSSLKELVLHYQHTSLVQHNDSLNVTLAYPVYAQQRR

Work on `CCn1cc(-c2ccncn2)c(-c2cccc(NS(=O)(=O)c3cc(F)ccc3F)c2)n1` [Compound 2] yielded an IC50 [1] greater than 100 µM, an IC50 [2] greater than 100 µM and an IC50 [3] of 7.9 µM. For the same compound, the LE [4] was 0.33, the LLE [4] was 4.2 and the IC50 [5] was greater than 50.1 µM. For the same compound, the AM Perm [6] was 50.1 ×10⁻⁶ cm/s and the chromatographic logD [7] was 4.

`Cc1ccc(S(C)(=O)=O)cc1Nc1nccc(-c2sc(CC(N)=O)nc2-c2ccccc2)n1` [Compound 3] gave an IC50 [1] of 19.1 µM, an IC50 [2] of 50.1 µM and an IC50 [3] of 0.251 µM. For the same compound, the LE [4] was 0.33, the LLE [4] was 6.0 and the IC50 [5] was 0.0794 µM. The AM Perm [6] was 36.7 ×10⁻⁶ cm/s and the chromatographic logD [7] was 3.3.

`CC(C)(CN)c1cc(-c2ccc(Cl)c(O)c2)c(-c2ccncc2)o1` [Compound 4] gave an IC50 [1] of 36.7 µM, an IC50 [2] of 12.6 µM and an IC50 [3] of 0.126 µM. It also gave an LE [4] of 0.5, an LLE [4] of 5.5 and an IC50 [5] greater than 50.1 µM. It also gave an AM Perm [6] of 53.1 ×10⁻⁶ cm/s and a chromatographic logD [7] of 3.1.

Work on `CCn1c(-c2nonc2N)nc2c(-c3ccccc3)ncc(CN(C)C3CCN(C)CC3)c21` [Compound 5] yielded an IC50 [1] of 21.9 µM, an IC50 [2] of 12.6 µM and an IC50 [3] of 12.6 µM. For the same compound, the LE [4] was 0.3, the LLE [4] was 4.3 and the IC50 [5] was greater than 50.1 µM. It also gave an AM Perm [6] of 22.9 ×10⁻⁶ cm/s and a chromatographic logD [7] of 3.7.

For `CNS(=O)(=O)c1cccc(Nc2ccnc(Nc3cccc(S(=O)(=O)NC)c3)n2)c1` [Compound 6], the IC50 [1] was 0.188 µM, the IC50 [2] was 25.1 µM and the IC50 [3] was 2 µM. For the same compound, the LE [4] was 0.33, the LLE [4] was 4.5 and the IC50 [5] was 2.5 µM. It also gave an AM Perm [6] of 12.7 ×10⁻⁶ cm/s and a chromatographic logD [7] of 3.4.

With `COc1ccc(-c2c(-c3cccc(C(=O)N4CCN(C)CC4)c3)oc3ncnc(N)c23)cc1` [Compound 7] the IC50 [1] was 14.1 µM, the IC50 [2] was greater than 100 µM and the IC50 [3] was 0.4 µM. It also gave an LE [4] of 0.33, an LLE [4] of 5.4 and an IC50 [5] of 39.8 µM. It also gave an AM Perm [6] of 32.4 ×10⁻⁶ cm/s and a chromatographic logD [7] of 2.6.

Work on `COc1ccc(CCNC(=O)CSc2ncnc3[nH]ncc23)cc1OC` [Compound 8] yielded an IC50 [1] of 22.1 µM, an IC50 [2] greater than 100 µM and an IC50 [3] greater than 31.6 µM. It also gave an LE [4] of 0.37, an LLE [4] of 5.5 and an IC50 [5] greater than 50.1 µM. It also gave an AM Perm [6] of 7 ×10⁻⁶ cm/s and a chromatographic logD [7] of 2.3.

Work on `COc1cccc(Nc2nc(-c3ccncc3)cc(N3CCN(C)CC3)n2)c1` [Compound 9] yielded an IC50 [1] of 10 µM, an IC50 [2] of 5 µM and an IC50 [3] greater than 31.6 µM. For the same compound, the LE [4] was 0.37, the LLE [4] was 3.9 and the IC50 [5] was greater than 50.1 µM. It also gave an AM Perm [6] of 59.9 ×10⁻⁶ cm/s and a chromatographic logD [7] of 3.6.

Work on `COc1cc(CS(C)(=O)=O)ccc1Nc1nc(Nc2cc(F)ccc2C(N)=O)c2cc[nH]c2n1` [Compound 10] yielded an IC50 [1] of 0.0248 µM, an IC50 [2] greater than 100 µM and an IC50 [3] greater than 31.6 µM. The LE [4] was 0.3, the LLE [4] was 4.4 and the IC50 [5] was greater than 50.1 µM. For the same compound, the AM Perm [6] was 7.7 ×10⁻⁶ cm/s and the chromatographic logD [7] was 3.3.

Work on `O=C(N[C@@H](CO)c1ccccc1)c1ccc2cncc(-c3cn[nH]c3)c2n1` [Compound 11] yielded an IC50 [1] of 1 µM, an IC50 [2] greater than 100 µM and an IC50 [3] of 1 µM. It also gave an LE [4] of 0.36, an LLE [4] of 4.9 and an IC50 [5] of 7.9 µM. It also gave an AM Perm [6] of 8.6 ×10⁻⁶ cm/s and a chromatographic logD [7] of 1.9.

`NCCNCc1ccc(-c2cc3ccncc3cc2OC2CCNCC2)s1` [Compound 12] gave an IC50 [1] of 0.851 µM, an IC50 [2] greater than 100 µM and an IC50 [3] of 4 µM. For the same compound, the LE [4] was 0.33, the LLE [4] was 4.7 and the AM Perm [6] was 1.2 ×10⁻⁶ cm/s. For the same compound, the chromatographic logD [7] was -0.36.

With `CNCCOc1cnc(-c2ccoc2C)c(-c2ccc3cnccc3c2)c1` [Compound 13] the IC50 [1] was 1.3 µM, the IC50 [2] was 63.1 µM and the IC50 [3] was 1.3 µM. It also gave an LE [4] of 0.4, an LLE [4] of 5.1 and an IC50 [5] greater than 50.1 µM. For the same compound, the AM Perm [6] was 43.1 ×10⁻⁶ cm/s and the chromatographic logD [7] was 2.1.

For `O=C(c1cccc(OCc2cccnc2)c1)N1CCc2sccc2C1CN1CCCCC1` (centres unmarked) [Compound 14], the IC50 [1] was 0.473 µM, the IC50 [2] was greater than 100 µM and the IC50 [3] was greater than 31.6 µM. The LE [4] was 0.32, the LLE [4] was 2.9 and the IC50 [5] was greater than 50.1 µM. The AM Perm [6] was 55.1 ×10⁻⁶ cm/s and the chromatographic logD [7] was 3.9.

With `Nc1ccc2c(-c3ccncc3)c(-c3ccc(Cl)c(O)c3)[nH]c2n1` [Compound 15] the IC50 [1] was 24 µM, the IC50 [2] was 20 µM and the IC50 [3] was 5 µM. It also gave an LE [4] of 0.44, an LLE [4] of 4.9 and an IC50 [5] of 10 µM. For the same compound, the AM Perm [6] was 11 ×10⁻⁶ cm/s and the chromatographic logD [7] was 2.1.

Compound `Nc1nc(Nc2cccc3cnccc23)nn1C(=O)C1CCCCC1` [Compound 16] has an IC50 [1] of 1.8 µM, an IC50 [2] of 79.4 µM and an IC50 [3] greater than 31.6 µM. The LE [4] was 0.4, the LLE [4] was 3.6 and the IC50 [5] was greater than 50.1 µM. It also gave an AM Perm [6] of 33.9 ×10⁻⁶ cm/s and a chromatographic logD [7] of 4.6.
